In paper PMC2360547 (British Journal of Cancer, 2006):
Like-named read-outs stand apart in the source and are kept apart here.

Tested on: multidrug resistant cells (R100; CCRF CEM cells resistant to 100 ng ml−1 vinblastine)
Conditions: for Percent of potential maximum reversal of multidrug resistance: plasma from patients receiving midostaurin 75 mg t.i.d.
Procedure: This was determined using a previously reported method that assessed the capacity of cremophor EL to inhibit MDR^10. Briefly, the ability of the patient's plasma to modulate ex vivo intracellular daunorubicin accumulation in multidrug resistant cells (R100; CCRF CEM cells resistant to 100 ng ml^−1 vinblastine) was measured using fluorescence detection. The activity of 20 μg ml^−1 Valspodar (PSC833, an inhibitor of P-glycoprotein) added to the patient's prestudy plasma sample defined 100% reversal ([…] of daunorubicin). […] The modulating ability of day 29 plasma samples was determined relative to this. All assays were performed in triplicate. Blank plasma was spiked with 1.0 μl ml^−1 cremophor EL and run as an inter-assay control.

[1] = 20 μg ml−1 added to pretreatment plasma, 100% = 20 μg ml−1 Valspodar

CO[C@@H]1[C@H](N(C)C(=O)c2ccccc2)C[C@H]2O[C@]1(C)n1c3ccccc3c3c4c(c5c6ccccc6n2c5c31)C(=O)NC4 [Midostaurin, N-benzoyl-staurosporine]
Percent of potential maximal reversal of multidrug resistance, mean [1]: 40% | Percent of potential maximal reversal of multidrug resistance, range [1]: 14–64% | Percent of potential maximum reversal of multidrug resistance (10 out of 12 patients): < 10% | Percent of potential maximum reversal of multidrug resistance (all 12 patients): < 20%
